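Results reflect a 48-hour exposure of cells in 96-well plates to compound at five concentrations. Abbreviation: GI50, concentration required for 50% inhibition of growth.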 The source made the active and inactive calls. Cut-off read from the data, not from the text of the source: active = GI50 up to about 1.1 µM and inactive = higher. Residues, ends and D or L forms follow the SMILES beside them. Groups on a side chain read outwards from the residue. *: point of attachment. Cbz = O=C(OCc1ccccc1)*; Boc = CC(C)(C)OC(=O)*
Assays:
Assay in all cases: growth of human tumour cells (NCI), 48 h
DU-145 = system: DU-145
SN12C = system: SN12C
IGROV-1 = system: IGROV-1
SK-OV-3 = system: SK-OV-3
HT-29 = system: HT-29
OVCAR-4 = system: OVCAR-4
SW-620 = system: SW-620
SR = system: SR
UO-31 = system: UO-31
A498 = system: A498
UACC-257 = system: UACC-257
MOLT-4 = system: MOLT-4
UACC-62 = system: UACC-62
CAKI-1 = system: CAKI-1
SK-MEL-5 = system: SK-MEL-5
TK-10 = system: TK-10
MCF7 = system: MCF7
OVCAR-5 = system: OVCAR-5
RPMI-8226 = system: RPMI-8226

| SMILES | GI50 (DU-145) | GI50 (SN12C) | GI50 (IGROV-1) | GI50 (SK-OV-3) | GI50 (HT-29) | GI50 (OVCAR-4) | GI50 (SW-620) | GI50 (SR) | GI50 (UO-31) | GI50 (A498) | GI50 (UACC-257) | GI50 (MOLT-4) | GI50 (UACC-62) | GI50 (CAKI-1) | GI50 (SK-MEL-5) | GI50 (TK-10) | GI50 (MCF7) | GI50 (OVCAR-5) | GI50 (RPMI-8226) |
| --- | --- | --- | --- | --- | --- | --- | --- | --- | --- | --- | --- | --- | --- | --- | --- | --- | --- | --- | --- |
| O=C(Nc1ccc(Br)c2ccccc12)c1ccc2ccccc2c1O | 3.89 µM (inactive) | 3.39 µM (inactive) | 2.9 µM (inactive) | 2.75 µM (inactive) | 3.67 µM (inactive) | 19.4 µM (inactive) | 2.26 µM (inactive) | 6.44 µM (inactive) | 2.51 µM (inactive) | 2.52 µM (inactive) | 1.95 µM (inactive) | 2.32 µM (inactive) | 1.82 µM (inactive) | 3.95 µM (inactive) | 1.61 µM (inactive) | 3.19 µM (inactive) | 2.73 µM (inactive) | 2.75 µM (inactive) | – |
| COc1c(-c2cc(C)c(Cl)c(=O)[nH]2)c(O)c(OC)c2occc12 | > 100 µM (inactive) | > 100 µM (inactive) | > 100 µM (inactive) | > 100 µM (inactive) | > 100 µM (inactive) | > 100 µM (inactive) | > 100 µM (inactive) | 81.8 µM (inactive) | 38.5 µM (inactive) | – | > 100 µM (inactive) | > 100 µM (inactive) | 64 µM (inactive) | > 100 µM (inactive) | 78.3 µM (inactive) | 42.9 µM (inactive) | > 100 µM (inactive) | > 100 µM (inactive) | > 100 µM (inactive) |
| CC(NC(=O)Cc1ccccc1)NC(=O)C(C)C(=O)NCc1ccccc1 (stereo unspecified) | > 100 µM (inactive) | 53.5 µM (inactive) | 50.9 µM (inactive) | 53.6 µM (inactive) | > 100 µM (inactive) | > 100 µM (inactive) | > 100 µM (inactive) | > 100 µM (inactive) | 42.6 µM (inactive) | – | > 100 µM (inactive) | > 100 µM (inactive) | > 100 µM (inactive) | 81.7 µM (inactive) | > 100 µM (inactive) | 45.4 µM (inactive) | > 100 µM (inactive) | > 100 µM (inactive) | > 100 µM (inactive) |
| CCOc1ccc2c(c1)C(/C(C(Cl)=C(Cl)Cl)=[N+](/[O-])OC(=O)c1ccccc1)=N2 | 47.2 µM (inactive) | 78.9 µM (inactive) | – | > 100 µM (inactive) | 61.2 µM (inactive) | 23 µM (inactive) | 65.8 µM (inactive) | 53.1 µM (inactive) | > 100 µM (inactive) | > 100 µM (inactive) | 43.2 µM (inactive) | 39 µM (inactive) | 77.6 µM (inactive) | 32.6 µM (inactive) | 35.3 µM (inactive) | 99.3 µM (inactive) | 39 µM (inactive) | 76.4 µM (inactive) | – |
| COC(=O)C(Cc1ccccc1)NP(=O)(O)OCC1OC(n2cc(Br)c(=O)[nH]c2=O)CC1O (stereo unspecified) | > 100 µM (inactive) | > 100 µM (inactive) | > 100 µM (inactive) | > 100 µM (inactive) | > 100 µM (inactive) | > 100 µM (inactive) | > 100 µM (inactive) | > 100 µM (inactive) | > 100 µM (inactive) | > 100 µM (inactive) | > 100 µM (inactive) | > 100 µM (inactive) | > 100 µM (inactive) | – | > 100 µM (inactive) | > 100 µM (inactive) | > 100 µM (inactive) | > 100 µM (inactive) | – |
| O=C(O)c1ccccc1CC1Cc2ccccc2C1=O (stereo unspecified) | > 100 µM (inactive) | > 100 µM (inactive) | > 100 µM (inactive) | > 100 µM (inactive) | > 100 µM (inactive) | > 100 µM (inactive) | > 100 µM (inactive) | > 100 µM (inactive) | > 100 µM (inactive) | – | > 100 µM (inactive) | > 100 µM (inactive) | > 100 µM (inactive) | > 100 µM (inactive) | > 100 µM (inactive) | > 100 µM (inactive) | > 100 µM (inactive) | > 100 µM (inactive) | > 100 µM (inactive) |
| Cc1nc(-c2cc3cc(Cl)ccc3oc2=O)cc2c1c(=O)oc1ccc(Cl)cc12 | > 100 µM (inactive) | > 100 µM (inactive) | > 100 µM (inactive) | > 100 µM (inactive) | > 100 µM (inactive) | – | > 100 µM (inactive) | > 100 µM (inactive) | > 100 µM (inactive) | > 100 µM (inactive) | > 100 µM (inactive) | > 100 µM (inactive) | > 100 µM (inactive) | – | > 100 µM (inactive) | > 100 µM (inactive) | > 100 µM (inactive) | – | > 100 µM (inactive) |
| COC(=O)[C@]1(C)CCC[C@]2(C)[C@H]3CC[C@]4(C(C)C)OO[C@@H](O4)[C@]34O[C@@H]4C[C@H]21 | 1.64 µM (inactive) | 3.02 µM (inactive) | 0.157 µM (active) | 2.32 µM (inactive) | 1.82 µM (inactive) | 1.85 µM (inactive) | 3.1 µM (inactive) | 0.238 µM (active) | 0.641 µM (active) | – | 14.9 µM (inactive) | 1.21 µM (inactive) | 5.3 µM (inactive) | 0.384 µM (active) | 1.69 µM (inactive) | 4.88 µM (inactive) | 2.19 µM (inactive) | 5.18 µM (inactive) | 3.44 µM (inactive) |
| Cc1c(-c2ccccc2)n(C)c2cn[nH]c(=O)c12 | 67.8 µM (inactive) | – | 70 µM (inactive) | 27.1 µM (inactive) | 26.1 µM (inactive) | – | 47.1 µM (inactive) | 27 µM (inactive) | 44.1 µM (inactive) | 30.4 µM (inactive) | 45.5 µM (inactive) | 32.7 µM (inactive) | 34.9 µM (inactive) | 49.5 µM (inactive) | 17.3 µM (inactive) | 41.4 µM (inactive) | 31.5 µM (inactive) | 52.2 µM (inactive) | 38.1 µM (inactive) |
| CN(C)Nc1cc(=O)[nH]c(=O)[nH]1 | > 100 µM (inactive) | > 100 µM (inactive) | > 100 µM (inactive) | – | > 100 µM (inactive) | > 100 µM (inactive) | > 100 µM (inactive) | > 100 µM (inactive) | > 100 µM (inactive) | > 100 µM (inactive) | > 100 µM (inactive) | > 100 µM (inactive) | – | – | > 100 µM (inactive) | > 100 µM (inactive) | > 100 µM (inactive) | > 100 µM (inactive) | > 100 µM (inactive) |
| Cc1ccc(NC(=O)CC(=O)N2N=C(N3CCCCC3)CC2c2ccccc2)cc1 (stereo unspecified) | > 100 µM (inactive) | > 100 µM (inactive) | > 100 µM (inactive) | – | > 100 µM (inactive) | > 100 µM (inactive) | > 100 µM (inactive) | > 100 µM (inactive) | > 100 µM (inactive) | > 100 µM (inactive) | > 100 µM (inactive) | > 100 µM (inactive) | > 100 µM (inactive) | > 100 µM (inactive) | > 100 µM (inactive) | > 100 µM (inactive) | > 100 µM (inactive) | > 100 µM (inactive) | – |
| O=C(O)CCC(NC(=O)c1ccc(Nc2nc3cc(C(F)(F)F)ccc3nc2C(=O)O)cc1)C(=O)O (stereo unspecified) | > 100 µM (inactive) | – | > 100 µM (inactive) | – | > 100 µM (inactive) | – | > 100 µM (inactive) | > 100 µM (inactive) | > 100 µM (inactive) | > 100 µM (inactive) | > 100 µM (inactive) | > 100 µM (inactive) | > 100 µM (inactive) | – | 79.8 µM (inactive) | > 100 µM (inactive) | > 100 µM (inactive) | > 100 µM (inactive) | > 100 µM (inactive) |
| COC(=O)c1cc(-c2c[nH]cc2C(=O)OCc2ccccc2)cn1S(=O)(=O)c1ccc(C)cc1 | > 100 µM (inactive) | > 100 µM (inactive) | > 100 µM (inactive) | > 100 µM (inactive) | > 100 µM (inactive) | > 100 µM (inactive) | – | > 100 µM (inactive) | > 100 µM (inactive) | > 100 µM (inactive) | 7.93 µM (inactive) | > 100 µM (inactive) | > 100 µM (inactive) | > 100 µM (inactive) | 4.16 µM (inactive) | > 100 µM (inactive) | 22.3 µM (inactive) | > 100 µM (inactive) | – |
| O=c1[nH]c(Nc2cccc(C(F)(F)F)c2)nc2[nH]cnc12 | > 100 µM (inactive) | > 100 µM (inactive) | > 100 µM (inactive) | > 100 µM (inactive) | 77.1 µM (inactive) | 94.2 µM (inactive) | > 100 µM (inactive) | > 100 µM (inactive) | – | – | > 100 µM (inactive) | > 100 µM (inactive) | – | > 100 µM (inactive) | 40.1 µM (inactive) | > 100 µM (inactive) | > 100 µM (inactive) | > 100 µM (inactive) | > 100 µM (inactive) |
| CC(C)CC(NC(=O)OCc1ccccc1)C(=O)NCCCCC(NC(=O)C(CCCCNC(=O)C(CC(C)C)NC(=O)OCc1ccccc1)NC(=O)C(CCCCNC(=O)C(CC(C)C)NC(=O)OCc1ccccc1)NC(=O)C(CCCCNC(=O)C(CC(C)C)NC(=O)OCc1ccccc1)NC(=O)OC(C)(C)C)C(=O)O (stereo unspecified) (Boc-K([Leu-Cbz])K([Leu-Cbz])K([Leu-Cbz])K([Leu-Cbz])-OH; configuration not given here) | > 25 µM (inactive) | > 25 µM (inactive) | > 25 µM (inactive) | – | > 25 µM (inactive) | > 25 µM (inactive) | > 25 µM (inactive) | > 25 µM (inactive) | > 25 µM (inactive) | > 25 µM (inactive) | > 25 µM (inactive) | > 25 µM (inactive) | > 25 µM (inactive) | > 25 µM (inactive) | > 25 µM (inactive) | > 25 µM (inactive) | > 25 µM (inactive) | > 25 µM (inactive) | > 25 µM (inactive) |

— ChEMBL document CHEMBL1201862, “PubChem BioAssay data set” (2004)
